Results as given in patent US10590128B2, “6,7,8,9-tetrahydro-5H-pyrido[2,3-d]azepine dopamine D3 ligands” (Pfizer Inc., priority 2016, dated 2020).

Columns and labels:
[1] = molecular target: human dopamine D2 receptor (hD2R) (Homo sapiens, UniProt P14416); assay: Human D2 receptor binding assay ([^3H]-Spiperone); settings: CHO cells expressing hD2R, geometric mean of 2-5 determinations unless marked b (single determination)
Experimental: (§1) Human D2 Receptor and Human D3 Receptor Binding Assays:
(§2) These determined ligand and tissue concentrations were utilized in time course studies to determine linearity and equilibrium conditions for binding. […] The hD2R assay buffer contains 50 mM Tris (pH 7.4 @ 37° C.), 100 mM NaCl and 1 mM MgCl2. The hD3R assay buffer consists of 50 mM Tris (pH 7.4 at 37° C.), 120 mM NaCl, 5 mM MgCl2, 5 mM KCl and 2 mM CaCl2. Competitive binding experiments were initiated by the addition of 200 μL of the respective cell homogenate to 96-well plates containing […] test drugs (10 concentrations using ½ log dilutions) and 50 μL of ^3H-radioligand for a final volume of 250 μL. Non-specific binding was determined by radioligand binding in the presence of a saturating concentration of Haldol (10 μM). After the 20 minute incubation at 37° C., assay samples were rapidly filtered through Unifilter-96 GF/B PEI-coated filter plates and rinsed with ice-cold 50 mM Tris buffer (pH 7.4 at 4° C.). […] The IC50 value (concentration at which 50% inhibition of specific binding occurs) was calculated by linear regression of the concentration-response data in ActivityBase. Ki values were then calculated according to the Cheng-Prusoff equation:
(§3) [formula] where [L]=concentration of free radioligand and Kd=dissociation constant of radioligand for D3 receptor or D2 receptor.

[2] = molecular target: human dopamine D3 receptor (hD3R) (Homo sapiens, UniProt P35462); assay: Human D3 receptor binding assay ([^3H]-7-OH-DPAT); settings: CHO cells expressing hD3R, geometric mean of 2-5 determinations unless marked b (single determination), read-out: hD3 in CHO cells Ki
Sequence of human dopamine D3 receptor (hD3R) (P35462 whole entry): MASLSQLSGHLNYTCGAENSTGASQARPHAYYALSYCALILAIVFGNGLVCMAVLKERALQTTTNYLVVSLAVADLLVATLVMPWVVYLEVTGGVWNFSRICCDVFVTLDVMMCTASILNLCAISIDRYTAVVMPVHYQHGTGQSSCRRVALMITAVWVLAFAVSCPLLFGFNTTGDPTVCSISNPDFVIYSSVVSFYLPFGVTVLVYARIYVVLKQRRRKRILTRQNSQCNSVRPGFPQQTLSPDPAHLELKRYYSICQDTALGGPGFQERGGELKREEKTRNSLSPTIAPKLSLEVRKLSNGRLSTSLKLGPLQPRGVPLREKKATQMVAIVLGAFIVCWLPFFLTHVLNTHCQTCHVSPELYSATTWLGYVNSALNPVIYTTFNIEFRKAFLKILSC
Experimental: as §1, §2, §3

Sequence of human dopamine D2 receptor (hD2R) (P14416 whole entry): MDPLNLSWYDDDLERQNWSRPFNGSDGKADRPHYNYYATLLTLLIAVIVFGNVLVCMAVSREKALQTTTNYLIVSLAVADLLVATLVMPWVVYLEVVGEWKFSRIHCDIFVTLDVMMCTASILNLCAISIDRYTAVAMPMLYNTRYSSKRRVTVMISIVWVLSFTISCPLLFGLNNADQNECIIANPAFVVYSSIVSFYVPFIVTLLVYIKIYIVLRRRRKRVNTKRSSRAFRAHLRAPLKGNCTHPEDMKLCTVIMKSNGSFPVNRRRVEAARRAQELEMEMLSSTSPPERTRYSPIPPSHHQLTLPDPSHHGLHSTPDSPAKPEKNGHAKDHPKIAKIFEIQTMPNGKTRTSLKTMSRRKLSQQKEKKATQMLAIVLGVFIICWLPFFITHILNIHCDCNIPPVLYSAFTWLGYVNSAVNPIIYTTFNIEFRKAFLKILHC

Question: Which Ki [1] does the source give for `COc1nc2c(cc1NS(=O)(=O)c1ccc(C3CC(F)(F)CCO3)cc1)CCN(C)CC2` (racemic) [Example 40, 4-(4,4-difluorotetrahydro-2H-pyran-2-yl)-N-(2-methoxy-7-methyl-6,7,8,9-tetrahydro-5H-pyrido[2,3-d]azepin-3-yl)benzenesulfonamide] here?
Answer: Its Ki is 134 nM.

Question: What about the Ki [2] of the same compound?
Answer: The Ki was 2.59 nM.

Question: Which Ki [1] does the source give for `CCN1CCc2cc(NS(=O)(=O)c3ccc(C4CCCCO4)cc3)c(OC)nc2CC1` (racemic) [Example 70, N-(7-ethyl-2-methoxy-6,7,8,9-tetrahydro-5H-pyrido[2,3-d]azepin-3-yl)-4-(tetrahydro-2H-pyran-2-yl)benzenesulfonamide] here?
Answer: The Ki was 294 nM.

Question: What about the Ki [2] of the same compound?
Answer: The Ki was 2 nM.

Question: How did the Ki [1] turn out when `COc1nc2c(cc1NS(=O)(=O)c1ccc(C3CCCOC3)cc1)CCN(C)CC2` (racemic) [Example 77, N-(2-methoxy-7-methyl-6,7,8,9-tetrahydro-5H-pyrido[2,3-d]azepin-3-yl)-4-(tetrahydro-2H-pyran-3-yl)benzenesulfonamide] was run?
Answer: The Ki was 549 nM.

Question: What about the Ki [2] of the same compound?
Answer: Its Ki is 4.52 nM.

Question: How did the Ki [1] turn out when `COc1nc2c(cc1NS(=O)(=O)c1ccc(C3(F)CCC(OC)CC3)cc1)CCN(C)CC2` (single isomer, unassigned) [Example 39, 4-(cis-1-fluoro-4-methoxycyclohexyl)-N-(2-methoxy-7-methyl-6,7,8,9-tetrahydro-5H-pyrido[2,3-d]azepin-3-yl)benzenesulfonamide] was run?
Answer: Its Ki is 561 nM.

Question: What about the Ki [2] of the same compound?
Answer: The Ki was 1.95 nM.

Question: What does the source list for `COc1nc2c(cc1NS(=O)(=O)c1ccc(C3CC(F)(F)CCO3)cc1)CCN(C)CC2` (single isomer, unassigned) [Example 41]?
Answer: Ki [1]: 177 nM; Ki [2]: 2.31 nM

Question: Which Ki [1] does the source give for `COc1nc2c(cc1NS(=O)(=O)c1ccc(C3CC(F)(F)CCO3)cc1)CCN(C)CC2` (single isomer, unassigned) [Example 42] here?
Answer: The Ki was 402 nM.

Question: And the Ki [2]?
Answer: The Ki was 5.91 nM.

Question: For `CCN1CCc2cc(NS(=O)(=O)c3ccc(C4CCCCO4)cc3)c(OC)nc2CC1` (single isomer, unassigned) [Example 73], which Ki [1] is on record?
Answer: Its Ki is 1040 nM.

Question: What about the Ki [2] of the same compound?
Answer: The Ki was 4.41 nM.

Question: For `CCN1CCc2cc(NS(=O)(=O)c3ccc(C4CCCCO4)cc3)c(OC)nc2CC1` (single isomer, unassigned) [Example 74], which Ki [1] is on record?
Answer: The Ki was 202 nM.

Question: What about the Ki [2] of the same compound?
Answer: Its Ki is 2.58 nM.

Question: Which results are given for `COc1nc2c(cc1NS(=O)(=O)c1ccc(C3CCCOC3)cc1)CCN(C)CC2` (single isomer, unassigned) [Example 83]?
Answer: Ki [1]: 436 nM; Ki [2]: 4.69 nM

Question: How did the Ki [1] turn out when `COc1nc2c(cc1NS(=O)(=O)c1ccc(C3CCCOC3)cc1)CCN(C)CC2` (single isomer, unassigned) [Example 84] was run?
Answer: Its Ki is 503 nM.

Question: And the Ki [2]?
Answer: The Ki was 4.58 nM.

Question: Which Ki [1] does the source give for `COc1nc2c(cc1NS(=O)(=O)c1ccc(C3CCOC(C)C3)cc1)CCN(C)CC2` (single isomer, unassigned) [Example 85] here?
Answer: The Ki was 303 nM.

Question: What about the Ki [2] of the same compound?
Answer: The Ki was 3.24 nM.

Question: What does the source list for `COc1nc2c(cc1NS(=O)(=O)c1ccc(C3CCOC(C)(C)C3)cc1)CCN(C)CC2` (single isomer, unassigned) [Example 86]?
Answer: Ki [1]: 1390 nM; Ki [2]: 35.2 nM

Question: Which Ki [1] does the source give for `COc1nc2c(cc1NS(=O)(=O)c1ccc(C3CCOC(C)(C)C3)cc1)CCN(C)CC2` (single isomer, unassigned) [Example 87] here?
Answer: Its Ki is 276 nM.

Question: And the Ki [2]?
Answer: Its Ki is 3.61 nM.

Question: Which results are given for `COc1nc2c(cc1NS(=O)(=O)c1ccc(C3CCOC(C)C3)cc1)CCN(C)CC2` (single isomer, unassigned) [Example 88]?
Answer: Ki [1]: 651 nM; Ki [2]: 6.84 nM

Question: What does the source list for `COc1nc2c(cc1NS(=O)(=O)c1ccc(C3(F)CCC(OC)CC3)cc1)CCN(C)CC2` (single isomer, unassigned) [Example 93, 4-(trans-1-fluoro-4-methoxycyclohexyl)-N-(2-methoxy-7-methyl-6,7,8,9-tetrahydro-5H-pyrido[2,3-d]azepin-3-yl)benzenesulfonamide]?
Answer: Ki [1]: 366 nM; Ki [2]: 2.03 nM

Question: For `CCN1CCc2cc(NS(=O)(=O)c3ccc(C4(F)CCC(OC)CC4)cc3)c(OC)nc2CC1` (single isomer, unassigned) [Example 94, N-(7-ethyl-2-methoxy-6,7,8,9-tetrahydro-5H-pyrido[2,3-d]azepin-3-yl)-4-(1-fluoro-4-methoxycyclohexyl)benzenesulfonamide], which Ki [1] is on record?
Answer: The Ki was 727 nM.

Question: What about the Ki [2] of the same compound?
Answer: The Ki was 2.71 nM.

Question: Which Ki [1] does the source give for `COc1nc2c(cc1NS(=O)(=O)c1ccc(C3CC(F)CCO3)cc1)CCN(C)CC2` (single isomer, unassigned) [Example 106, 4-(4-fluorotetrahydro-2H-pyran-2-yl)-N-(2-methoxy-7-methyl-6,7,8,9-tetrahydro-5H-pyrido[2,3-d]azepin-3-yl)benzenesulfonamide] here?
Answer: Its Ki is 320 nM.

Question: What about the Ki [2] of the same compound?
Answer: The Ki was 4.31 nM.

Question: For `COc1nc2c(cc1NS(=O)(=O)c1ccc(C3CC(F)CCO3)cc1)CCN(C)CC2` (single isomer, unassigned; diastereomer-1) [Example 108, 4-(4-fluorotetrahydro-2H-pyran-2-yl)-N-(2-methoxy-7-methyl-6,7,8,9-tetrahydro-5H-pyrido[2,3-d]azepin-3-yl)benzenesulfonamide, diastereomer-1], which Ki [1] is on record?
Answer: Its Ki is 1930 nM.

Question: And the Ki [2]?
Answer: Its Ki is 15.1 nM.

Question: How did the Ki [1] turn out when `COc1nc2c(cc1NS(=O)(=O)c1ccc(C3CC(F)CCO3)cc1)CCN(C)CC2` (single isomer, unassigned; diastereomer-2) [Example 109, 4-(4-fluorotetrahydro-2H-pyran-2-yl)-N-(2-methoxy-7-methyl-6,7,8,9-tetrahydro-5H-pyrido[2,3-d]azepin-3-yl)benzenesulfonamide, diastereomer-2] was run?
Answer: Its Ki is 208 nM.

Question: What about the Ki [2] of the same compound?
Answer: Its Ki is 3.16 nM.

Question: What does the source list for `COc1nc2c(cc1NS(=O)(=O)c1ccc(C3CCCCC3)nc1)CCN(C)CC2` [Example 1, 6-Cyclohexyl-N-(2-methoxy-7-methyl-6,7,8,9-tetrahydro-5H-pyrido[2,3-d]azepin-3-yl)pyridine-3-sulfonamide]?
Answer: Ki [1]: 38.8 nM; Ki [2]: 1.75 nM

Question: Which results are given for `CCN1CCc2cc(NS(=O)(=O)c3ccc(OC4CCCC4)nc3)c(OC)nc2CC1` [Example 2, 6-(Cyclopentyloxy)-N-(7-ethyl-2-methoxy-6,7,8,9-tetrahydro-5H-pyrido[2,3-d]azepin-3-yl)pyridine-3-sulfonamide]?
Answer: Ki [1]: 76 nM; Ki [2]: 0.859 nM

Question: What does the source list for `COc1nc2c(cc1NS(=O)(=O)c1ccc([C@H]3C[C@H](OCCF)C3)cc1)CCN(C)CC2` [Example 3, 4-[trans-3-(2-Fluoroethoxy)cyclobutyl]-N-(2-methoxy-7-methyl-6,7,8,9-tetrahydro-5H-pyrido[2,3-d]azepin-3-yl)benzenesulfonamide]?
Answer: Ki [1]: 85.9 nM; Ki [2]: 1.56 nM

Question: What does the source list for `COc1nc2c(cc1NS(=O)(=O)c1ccc(C3CCOCC3)cc1)CCN(C)CC2` [Example 4, N-(2-Methoxy-7-methyl-6,7,8,9-tetrahydro-5H-pyrido[2,3-d]azepin-3-yl)-4-(tetrahydro-2H-pyran-4-yl)benzenesulfonamide]?
Answer: Ki [1]: 104 nM; Ki [2]: 1.53 nM

Question: With `COc1nc2c(cc1NS(=O)(=O)c1ccc(C)cc1)CCN(C)CC2` [Example 5, N-(2-Methoxy-7-methyl-6,7,8,9-tetrahydro-5H-pyrido[2,3-d]azepin-3-yl)-4-methylbenzenesulfonamide] as the compound, how does the Ki [1] read?
Answer: Its Ki is 333 nM.

Question: And the Ki [2]?
Answer: The Ki was 3.72 nM.

Question: How did the Ki [1] turn out when `COc1nc2c(cc1NS(=O)(=O)c1ccc(C3CCCCO3)cc1)CCN(C)CC2` (stereo not shown) [Example 6, N-(2-Methoxy-7-methyl-6,7,8,9-tetrahydro-5H-pyrido[2,3-d]azepin-3-yl)-4-(tetrahydro-2H-pyran-2-yl)benzenesulfonamide] was run?
Answer: The Ki was 54.6 nM.

Question: And the Ki [2]?
Answer: The Ki was 0.866 nM.

Question: Which Ki [1] does the source give for `COc1nc2c(cc1NS(=O)(=O)c1ccc([C@H]3CCCCO3)cc1)CCN(C)CC2` [Example 7, N-(2-Methoxy-7-methyl-6,7,8,9-tetrahydro-5H-pyrido[2,3-d]azepin-3-yl)-4-[(2R)-tetrahydro-2H-pyran-2-yl]benzenesulfonamide] here?
Answer: The Ki was 65.5 nM.

Question: And the Ki [2]?
Answer: The Ki was 1.39 nM.

Question: With `COc1nc2c(cc1NS(=O)(=O)c1ccc([C@@H]3CCCCO3)cc1)CCN(C)CC2` [Example 8, N-(2-Methoxy-7-methyl-6,7,8,9-tetrahydro-5H-pyrido[2,3-d]azepin-3-yl)-4-[(2S)-tetrahydro-2H-pyran-2-yl]benzenesulfonamide] as the compound, how does the Ki [1] read?
Answer: The Ki was 180 nM.

Question: And the Ki [2]?
Answer: The Ki was 2.09 nM.

Question: Which Ki [1] does the source give for `COc1nc2c(cc1NS(=O)(=O)c1ccc([C@H]3CCCCO3)cc1)CCNCC2` [Example 9, N-(2-Methoxy-6,7,8,9-tetrahydro-5H-pyrido[2,3-d]azepin-3-yl)-4-[(2R)-tetrahydro-2H-pyran-2-yl]benzenesulfonamide] here?
Answer: The Ki was 1270 nM.

Question: What about the Ki [2] of the same compound?
Answer: Its Ki is 7.68 nM.

Question: How did the Ki [1] turn out when `COc1nc2c(cc1NS(=O)(=O)c1ccc([C@]3(F)C[C@H](OC)C3)cc1)CCN(C)CC2` [Example 10, 4-(trans-1-Fluoro-3-methoxycyclobutyl)-N-(2-methoxy-7-methyl-6,7,8,9-tetrahydro-5H-pyrido[2,3-d]azepin-3-yl)benzenesulfonamide] was run?
Answer: Its Ki is 99 nM.

Question: What about the Ki [2] of the same compound?
Answer: Its Ki is 1.16 nM.

Question: What does the source list for `COc1nc2c(cc1NS(=O)(=O)c1ccc(C3(F)CCCC3)nc1)CCN(C)CC2` [Example 11, 6-(1-fluorocyclopentyl)-N-(2-methoxy-7-methyl-6,7,8,9-tetrahydro-5H-pyrido[2,3-d]azepin-3-yl)pyridine-3-sulfonamide]?
Answer: Ki [1]: 106 nM; Ki [2]: 3.31 nM

Question: How did the Ki [2] turn out when `COc1nc2c(cc1NS(=O)(=O)c1ccc(C3COC3)cc1)CCN(C)CC2` [Example 33, N-(2-methoxy-7-methyl-6,7,8,9-tetrahydro-5H-pyrido[2,3-d]azepin-3-yl)-4-(oxetan-3-yl)benzenesulfonamide] was run?
Answer: Its Ki is 3.68 nM.
